ChEMBL document CHEMBL5154911, “Palmatine Derivatives as Potential Antiplatelet Aggregation Agents via Protein Kinase G/Vasodilator-Stimulated Phosphoprotein and Phosphatidylinositol 3-Kinase/Akt Phosphorylation” (J Med Chem, 2022)
The source made the active and inactive calls. The rule behind the calls is not given here.

Columns and labels:
[1] = Antiplatelet activity against ADP-induced C57BL/6J mouse platelet aggregation assessed as maximal aggregration rate at 10 uM preincubated for 10 mins followed by ADP addition relative to control; assay type: functional
Platelet [2] = assay: Antiplatelet activity against ADP-induced C57BL/6J mouse platelet aggregation assessed as reduction in integrin alphaIIbbeta3 surface levels by measuring increase median fluorescence intensities at 10 uM incubated for 10 min by flow cytometry analysis; assay type: functional, cell-based
Platelet [3] = assay: Antiplatelet activity against ADP-induced C57BL/6J mouse platelet aggregation assessed as reduction in P-selectin surface levels by measuring increase median fluorescence intensities at 10 uM incubated for 10 min by flow cytometry analysis; assay type: functional, cell-based
Platelet [4] = assay: Inhibition of ADP-induced Akt activation in C57BL/6J mouse platelet assessed as reduction of AKT phosphorylation at Ser473 by western blot analysis; assay type: cell-based
Platelet [5] = assay: Antiplatelet activity against ADP-induced C57BL/6J mouse platelet aggregation assessed as reduction on platelet aggregation at 2.5 to 10 uM preincubated for 10 mins followed by ADP addition; assay type: functional, cell-based; conditions: dose 2.5-10 µM, DDE = dose-dependent effect
[6] = Cytotoxicity against human HUVEC cells assessed as cell vaibility at 100 uM by MTS assay; assay type: toxicity, cell-based; conditions: read-out: Activity
Mus musculus [7] = assay: Antiplatelet activity against ADP-induced C57BL/6J mouse platelet aggregation assessed as reduction in P-selectin surface levels at 100 mg/kg, po measured after 2 weeks by flow cytometry analysis; assay type: functional, organism-based
Mus musculus [8] = assay: Antiplatelet activity against ADP-induced C57BL/6J mouse platelet aggregation assessed as reduction in integrin alphaIIbbeta3 surface level at 100 mg/kg, po measured after 2 weeks by flow cytometry analysis; assay type: functional, organism-based
Platelet [9] = assay: Inhibition of ADP-induced Akt activation in C57BL/6J mouse platelets assessed as reduction in phosphorylation Akt level at Ser473 at 100 mg/kg, po measured after 2 weeks by western blot analysis; assay type: organism-based
Mus musculus [10] = assay: Antithrombotic activity in BALB/c mouse model of carrageenan-induced thrombus formation assessed as inhibition of thrombosis rate in tail at 100 mg/kg, iv measured after 14 days; assay type: functional, organism-based; conditions: time 14.0 day
Mus musculus [11] = assay: Antiplatelet activity against ADP-induced C57BL/6J mouse platelet aggregation assessed as inhibition of platelet aggregation at 100 mg/kg, po measured after 2 weeks; assay type: functional, organism-based
Lung = assay: Antithrombotic activity in BALB/c mouse model of carrageenan-induced thrombus formation assessed as reduced thrombus formation in lung at 100 mg/kg, iv measured after 14 days by H and E staining based assay; assay type: functional, organism-based; conditions: time 14.0 day
Mus musculus [12] = assay: Antithrombotic activity in BALB/c mouse model of carrageenan-induced thrombus formation assessed as reduced serum P-selectin level at 100 mg/kg, iv measured after 14 days by ELISA; assay type: functional, organism-based; conditions: time 14.0 day

Row | SMILES | %max [1] [%] | also measured
1 | COc1cc2c(cc1OC)-c1cc3ccc(OC)c(OCC4CCCC4)c3c[n+]1CC2.[Br-] | 35.4 | 
2 | CCCCCNc1c(OC)ccc2cc3[n+](cc12)CCc1cc(OC)c(OC)cc1-3.[Cl-] | 37.8 | 
3 | COc1cc2c(cc1OC)-c1cc3ccc(OC)c(NCc4ccc(Cl)cc4)c3c[n+]1CC2.[Cl-] | 31.6 | Activity (Platelet [2]): Active; Activity (Platelet [3]): Active; inhibition (Platelet [4]): Active; Activity (Platelet [5]): Dde
4 | COc1cc2c(cc1OC)-c1cc3ccc(OC)c(OC(=O)c4ccccc4)c3c[n+]1CC2.[Cl-] | 42.6 | 
5 | COc1cc2c(cc1OC)-c1cc3ccc(OC)c(OCCC4CCCCC4)c3c[n+]1CC2.[Br-] | 36.5 | 
6 | CCOc1c(OC)ccc2cc3[n+](cc12)CCc1cc(OC)c(OC)cc1-3.[Br-] | 34.6 | 
7 | CCC(=O)Nc1c(OC)ccc2cc3[n+](cc12)CCc1cc(OC)c(OC)cc1-3.[Cl-] | 34.5 | 
8 | Br.COc1cc2c(cc1OC)-c1cc3ccc(OC)c(OCc4ccccc4[N+](=O)[O-])c3c[n+]1CC2 | 39.7 | 
9 | COc1cc2c(cc1OC)-c1cc3ccc(OC)c(NCc4cccc(C#N)c4)c3c[n+]1CC2.[Cl-] | 36.3 | 
10 | COc1ccc(CNc2c(OC)ccc3cc4[n+](cc23)CCc2cc(OC)c(OC)cc2-4)cc1.[Cl-] | 35.6 | 
11 | COc1cc2c(cc1OC)-c1cc3ccc(OC)c(OCC4CC4)c3c[n+]1CC2.[Br-] | 30.4 | viability at 100 µM [6]: 90%; Activity (Platelet [2]): Active; Activity (Platelet [3]): Active; inhibition (Platelet [4]): Active; Activity (Platelet [5]): Dde
12 | COc1cc2c(cc1OC)-c1cc3ccc(OC)c(OCc4ccccc4)c3c[n+]1CC2.[Br-] | 36.9 | 
13 | COc1cc2c(cc1OC)-c1c(Cc3cc(C)cc(C)c3)c3ccc(OC)c(OC)c3c[n+]1CC2.[Br-] | 39.4 | 
14 | COc1ccc2cc3[n+](cc2c1OC)CCc1cc2c(cc1-3)OCO2 [BERBERINE] | 27.5 | inhibition (Platelet [4]): Active; Activity (Mus musculus [7]): Active; Activity (Mus musculus [8]): Active; inhibition (Platelet [9]): Active; Activity (Mus musculus [10]): Active; Activity (Mus musculus [11]): Active; Activity (Lung): Active; Activity (Mus musculus [12]): Active
15 | COC(=O)/C=C/c1ccc(Cc2c3[n+](cc4c(OC)c(OC)ccc24)CCc2cc(OC)c(OC)cc2-3)cc1.[Br-] | 38.2 | 
16 | COc1ccc(C(=O)Nc2c(OC)ccc3cc4[n+](cc23)CCc2cc(OC)c(OC)cc2-4)cc1.[Cl-] | 38.5 | 
17 | COc1cc2c(cc1OC)-c1cc3ccc(OC)c(OCc4ccc(C(F)(F)F)cc4)c3c[n+]1CC2.[Br-] | 37.7 | 
18 | CCCCCCCOc1c(OC)ccc2cc3[n+](cc12)CCc1cc(OC)c(OC)cc1-3.[Br-] | 35.3 | 
19 | COc1cc2c(cc1OC)-c1cc3ccc(OC)c(OCc4ccc(C)cc4)c3c[n+]1CC2.[Br-] | 35.2 | 
20 | C=CCc1c2[n+](cc3c(OC)c(OC)ccc13)CCc1cc(OC)c(OC)cc1-2.[Br-] | 36.5 | 
21 | CCCCOc1c(OC)ccc2cc3[n+](cc12)CCc1cc(OC)c(OC)cc1-3.[Br-] | 34.4 | 

Row | SMILES | %max [1] [%] | also measured
22 | COc1cc2c(cc1OC)-c1c(Cc3cccc(C)c3)c3ccc(OC)c(OC)c3c[n+]1CC2.[Br-] | 41.4 | 
23 | COc1cc2c(cc1OC)-c1cc3ccc(OC)c(OS(=O)(=O)c4ccc([N+](=O)[O-])cc4)c3c[n+]1CC2.O=[SH](=O)c1ccccc1 | 37.7 | 
24 | Br.COc1cc2c(cc1OC)-c1c(Cc3ccc([N+](=O)[O-])cc3)c3ccc(OC)c(OC)c3c[n+]1CC2 | 38.6 | 
25 | C/C=C/Cc1c2[n+](cc3c(OC)c(OC)ccc13)CCc1cc(OC)c(OC)cc1-2.[Br-] | 40.3 | 
26 | COc1cc2c(cc1OC)-c1cc3ccc(OC)c(NC(=O)c4ccc(F)cc4)c3c[n+]1CC2.[Cl-] | 37.1 | 
27 | COc1cc2c(cc1OC)-c1cc3ccc(OC)c(OC)c3c[n+]1CC2 [PALMITINE] | 38.4 | 
28 | COc1cc2c(cc1OC)-c1cc3ccc(OC)c(NCc4ccc(C)cc4)c3c[n+]1CC2.[Cl-] | 33.2 | 
29 | COc1cc2c(cc1OC)-c1cc3ccc(OC)c(OCC(C)C)c3c[n+]1CC2.[Br-] | 33.4 | 
30 | COc1cc2c(cc1OC)-c1cc3ccc(OC)c(OCc4cccc(C#N)c4)c3c[n+]1CC2.[Br-] | 35.5 | 
31 | COc1cc2c(cc1OC)-c1cc3ccc(OC)c(OCc4cccc(F)c4)c3c[n+]1CC2.[Br-] | 35.7 | 
32 | COc1cc(COc2c(OC)ccc3cc4[n+](cc23)CCc2cc(OC)c(OC)cc2-4)cc(OC)c1.[Br-] | 38.4 | 
33 | COc1cc2c(cc1OC)-c1c(Cc3ccccc3C#N)c3ccc(OC)c(OC)c3c[n+]1CC2.[Br-] | 40.2 | 
34 | C=CCOc1c(OC)ccc2cc3[n+](cc12)CCc1cc(OC)c(OC)cc1-3.[Br-] | 34.3 | 
35 | CCCCC(=O)Nc1c(OC)ccc2cc3[n+](cc12)CCc1cc(OC)c(OC)cc1-3.[Cl-] | 37.2 | 
36 | CCCC(=O)Oc1c(OC)ccc2cc3[n+](cc12)CCc1cc(OC)c(OC)cc1-3.[Cl-] | 39.8 | 
37 | COc1cc2c(cc1OC)-c1cc3ccc(OC)c(OCc4cccc(Br)c4)c3c[n+]1CC2.[Br-] | 39.3 | 
38 | COc1cc2c(cc1OC)-c1cc3ccc(OC)c(NCc4ccccc4)c3c[n+]1CC2.[Cl-] | 37.3 | 
39 | COc1cccc(COc2c(OC)ccc3cc4[n+](cc23)CCc2cc(OC)c(OC)cc2-4)c1.[Br-] | 34.8 | viability at 100 µM [6]: 90%
40 | COc1cc2c(cc1OC)-c1cc3ccc(OC)c(OCC4CCC4)c3c[n+]1CC2.[Br-] | 34.4 | 
41 | COc1cc2c(cc1OC)-c1cc3ccc(OC)c(NC(=O)C45CC6CC(CC(C6)C4)C5)c3c[n+]1CC2.[Cl-] | 34.7 | 
42 | Br.COc1cc2c(cc1OC)-c1cc3ccc(OC)c(OCc4ccc([N+](=O)[O-])cc4)c3c[n+]1CC2 | 37.9 | 

Row | SMILES | %max [1] [%] | also measured
43 | COc1cc2c(cc1OC)-c1cc3ccc(OC)c(OCc4ccccc4C#N)c3c[n+]1CC2.[Br-] | 30.5 | viability at 100 µM [6]: < 60%; Activity (Platelet [2]): Active; Activity (Platelet [3]): Active; inhibition (Platelet [4]): Active; Activity (Platelet [5]): Dde
44 | COc1cc2c(cc1OC)-c1cc3ccc(OC)c(NC(=O)c4cccc(F)c4)c3c[n+]1CC2.[Cl-] | 40.6 | 
45 | COc1cc2c(cc1OC)-c1cc3ccc(OC)c(OC(=O)c4ccccc4C)c3c[n+]1CC2.[Cl-] | 38 | 
46 | CCCCNc1c(OC)ccc2cc3[n+](cc12)CCc1cc(OC)c(OC)cc1-3.[Cl-] | 33.4 | 
47 | COc1cc2c(cc1OC)-c1cc3ccc(OC)c(OCC4CCCCC4)c3c[n+]1CC2.[Br-] | 33.9 | 
48 | COc1cc2c(cc1OC)-c1cc3ccc(OC)c(NC(=O)c4ccccc4)c3c[n+]1CC2.[Cl-] | 35.8 | 
49 | COc1cc2c(cc1OC)-c1c(C3C=CCCC3)c3ccc(OC)c(OC)c3c[n+]1CC2.[Br-] (centres undefined) | 39.8 | 
50 | COc1cc2c(cc1OC)-c1cc3ccc(OC)c(NCc4ccc(F)cc4)c3c[n+]1CC2.[Cl-] | 34.2 | 
51 | COc1cc2c(cc1OC)-c1cc3ccc(OC)c(OCc4ccccc4C)c3c[n+]1CC2.[Br-] | 37.8 | 
52 | COc1cc2c(cc1OC)-c1cc3ccc(OC)c(OCc4ccc(C(C)C)cc4)c3c[n+]1CC2.[Br-] | 37.5 | 
53 | COc1cc2c(cc1OC)-c1cc3ccc(OC)c(NC(=O)C4CCCC4)c3c[n+]1CC2.[Cl-] | 34.9 | 
54 | COc1cc2c(cc1OC)-c1cc3ccc(OC)c(OS(=O)(=O)c4ccccc4)c3c[n+]1CC2.O=[S-](=O)c1ccccc1 | 39.4 | 
55 | COc1ccc(CNc2c(OC)ccc3cc4[n+](cc23)CCc2cc(OC)c(OC)cc2-4)c(OC)c1.[Cl-] | 33.5 | 
56 | CCCC(=O)Nc1c(OC)ccc2cc3[n+](cc12)CCc1cc(OC)c(OC)cc1-3.[Cl-] | 34.3 | 
57 | COc1cc2c(cc1OC)-c1cc3ccc(OC)c(OCc4ccc(C#N)cc4)c3c[n+]1CC2.[Br-] | 42.1 | 
58 | COc1cc2c(cc1OC)-c1cc3ccc(OC)c(NC(=O)C4CCCCC4)c3c[n+]1CC2.[Cl-] | 37.7 | 
59 | COc1cc2c(cc1OC)-c1c(Cc3ccc(C)cc3)c3ccc(OC)c(OC)c3c[n+]1CC2.[Br-] | 38.3 | 
60 | Br.COc1cc2c(cc1OC)-c1cc3ccc(OC)c(OCc4cccc([N+](=O)[O-])c4)c3c[n+]1CC2 | 33.3 | 
61 | CCC(=O)Oc1c(OC)ccc2cc3[n+](cc12)CCc1cc(OC)c(OC)cc1-3.[Cl-] | 40.1 | 
